Conditions: rat, in vivo, sc

heparin
bioavailability: 48-60%
